The values below come from ChEMBL document CHEMBL2429852, “Synthesis and evaluation of new chalcones, derived pyrazoline and cyclohexenone derivatives as potent antimicrobial, antitubercular and antileishmanial agents” (Med Chem Res, 2013).

Values after ≈ are worked out from the molar mass of the structure shown.

The subject of series [1] is Candida albicans. The series is described as follows: Antifungal activity against Candida albicans MTCC 227 assessed as growth inhibition by broth microdilution method. Format: functional.
Series [2] has as its system Aspergillus niger. The series is described as follows: Antifungal activity against Aspergillus niger MTCC 282 assessed as growth inhibition by broth microdilution method. Format: functional. For orientation: Dilution methods test growth across graded concentrations, often in twofold steps.
The test system of series [3] is Leishmania braziliensis. The series is described as follows: Antileishmanial activity against promastigote stage of Leishmania braziliensis H3 assessed as parasite growth inhibition after 72 hrs by Neubauer chamber counting method. Format: functional, organism-based.
A short description of series [4]: Selectivity index, ratio of CC50 for mouse J774A1 cells to IC50 for promastigote stage of Leishmania braziliensis H3. Format: functional, J774.A1.
The test system of series [5] is Staphylococcus aureus. Put plainly: Antibacterial activity against Staphylococcus aureus MTCC 96 assessed as growth inhibition by broth microdilution method. It is filed as functional.
In series [6] the test system is Mycobacterium tuberculosis. Put plainly: Antitubercular activity against Mycobacterium tuberculosis H37Rv assessed as growth inhibition after 12 to 28 days by Lowenstein-Jensen agar method. Format: functional. As to conditions: for MIC: Mycobacterium tuberculosis, H37Rv; call rule not given here.
In series [7] the test system is Pseudomonas aeruginosa. The series is described as follows: Antibacterial activity against Pseudomonas aeruginosa MTCC 2488 assessed as growth inhibition by broth microdilution method. Format: functional.
Series [8] can be described thus: Cytotoxicity against mouse J774A1 cells after 72 hrs by MTT assay. It is filed as cell-based, J774.A1. For orientation: Tetrazolium assays rely on reduction of a dye to a coloured formazan, in cell work by metabolically active cells.
Series [9] has as its system Escherichia coli. The series is described as follows: Antibacterial activity against Escherichia coli MTCC 442 assessed as growth inhibition by broth microdilution method. It is filed as functional.
The subject of series [10] is Aspergillus clavatus. Put plainly: Antifungal activity against Aspergillus clavatus MTCC 1323 assessed as growth inhibition by broth microdilution method. It is filed as functional.
The test system of series [11] is Streptococcus pyogenes. Put plainly: Antibacterial activity against Streptococcus pyogenes MTCC 443 assessed as growth inhibition by broth microdilution method. Format: functional.
For series [12], the system named is Pseudomonas aeruginosa. Put plainly: Potency index, ratio of ampicillin MIC to compound MIC for Pseudomonas aeruginosa MTCC 2488. It is filed as functional.
In series [13] the test system is Staphylococcus aureus. The series is described as follows: Potency index, ratio of ampicillin MIC to compound MIC for Staphylococcus aureus MTCC 96. It is filed as functional.
Series [14] deals with Candida albicans. The series is described as follows: Potency index, ratio of griseofulvin MIC to compound MIC for Candida albicans MTCC 227. Format: functional.
The subject of series [15] is Escherichia coli. Put plainly: Potency index, ratio of ampicillin MIC to compound MIC for Escherichia coli MTCC 442. It is filed as functional.
Series [16] relates to Streptococcus pyogenes. Put plainly: Potency index, ratio of ampicillin MIC to compound MIC for Streptococcus pyogenes MTCC 443. It is filed as functional.
Setting [17] is: Leishmania braziliensis, H3, 72 h, read-out: IC50.

The MIC99 is an inhibitory concentration at the 99% level, which refers to growth in some studies and to a panel of isolates in others. By IC50 is commonly meant the midpoint of a concentration-inhibition curve. Usually MIC stands for the least concentration at which growth counts as inhibited. For orientation: CC50 means the concentration at which the toxic effect on the cells reaches its halfway point. A lower CC50 goes with harm at low concentration. For `COc1ccc(/C=C/C(=O)c2cccc([N+](=O)[O-])c2)c(OC)c1OC`, the MIC99 in series [1] is 1000 µg/mL; in [2], above 1000 µg/mL; in series [5], 250 µg/mL; in series [7], 200 µg/mL; in [9], 200 µg/mL; in series [10] it was above 1000 µg/mL. The MIC99 in series [11] stood at 250 µg/mL. Also, the IC50 in series [3] (setting [17]) came out at 8.9 µM. Moreover, the “Ratio CC50/IC50” value in series [4] was 10.06. In series [6], the “growth inhibition (GI)” value is 98%. The MIC in series [6] turned out to be 500 µg/mL (≈ 1460 µM). For the same molecule, the half-maximal cytotoxic concentration (CC50) at 72 h in series [8] came to 89.5 µM.
As to `O=[N+]([O-])c1cccc(C2=NNC(c3ccc4ccccc4c3)C2)c1` (stereo not drawn), the Ratio was 4 in [12], 2 in series [13] and 5 in [14]. Moreover, the MIC99 in [1] stood at 100 µg/mL; in series [2] it was 100 µg/mL; in [5], 50 µg/mL; in series [7] it was 25 µg/mL; in [9], 250 µg/mL; in [10], 250 µg/mL. Further, in [11], the MIC99 is 125 µg/mL. In addition, in series [3], the IC50 result is given as “Not Active”. For the same molecule, the “growth inhibition (GI)” value in [6] is 99%. Besides, the minimal inhibitory concentration (MIC) in series [6] is 62.5 µg/mL (≈ 197 µM).
As for `O=C(/C=C/c1ccc2ccccc2c1)c1cccc([N+](=O)[O-])c1`, the MIC99 came to 500 µg/mL in series [1]; 1000 µg/mL in [2]; 100 µg/mL in series [5]; 200 µg/mL in series [7]; 62.5 µg/mL in series [9]; 1000 µg/mL in series [10]. For the same molecule, the MIC99 in series [11] was 125 µg/mL. Besides, the Ratio in series [13] and in series [15] was 2 throughout. For the same molecule, the IC50 entry in series [3] is on record as “Not Active”. For the same molecule, in series [6], the “growth inhibition (GI)” value was 98%. In [6], the MIC worked out at 500 µg/mL (≈ 1650 µM).
Turning to `CC(=O)N1N=C(c2cccc([N+](=O)[O-])c2)CC1/C=C/c1ccccc1` (stereo not drawn), the Ratio in series [16] is recorded as 5; in series [15] it was 4; in series [14], 2. Further, the MIC99 in [1] is 500 µg/mL; in series [2], above 1000 µg/mL; in series [5], 250 µg/mL; in series [7], 100 µg/mL; in [9], 62.5 µg/mL; in series [10], above 1000 µg/mL. Besides, the MIC99 in [11] turned out to be 25 µg/mL. Moreover, the IC50 entry in [3] is listed as “Not Active”. The “growth inhibition (GI)” value in series [6] is on record as 98%. Besides, the MIC in [6] is 250 µg/mL (≈ 745 µM).
Take `COc1cc(/C=C/C(=O)c2cccc([N+](=O)[O-])c2)cc(OC)c1OC`: the MIC99 in [1] is 250 µg/mL; in [2] it was above 1000 µg/mL; in series [5], 100 µg/mL; in series [7], 250 µg/mL; in [9] it was 250 µg/mL; in [10], above 1000 µg/mL. For the same molecule, in series [11], the MIC99 came to 100 µg/mL. For the same molecule, the IC50 in series [3] (setting [17]) turned out to be 9.3 µM. Also, the “Ratio CC50/IC50” value in [4] is reported as 5.26. Moreover, the “growth inhibition (GI)” value in series [6] came out at 99%. In addition, the minimum inhibitory concentration (MIC) in series [6] is 25 µg/mL (≈ 72.8 µM). The same molecule registered a 50% cytotoxic concentration (CC50) at 72 h in series [8] of 49 µM. In series [14], the Ratio amounted to 2.
